Measured values reported in US20060030603A1, “Novel aryl urea analogs and use thereof as antibacterial agents” (priority 2004, published 2006).
Converted amounts (≈) assume the structure as drawn. Read-outs that look alike come from different tables or passages of the source.

Assays:
[1] = tested on: E. faecium ATCC 6569; assay: MIC assay, E. faecium; type: cell-based; details: Enterococcus faecium, ATCC6569; read-out: MIC E. faecium ATCC 6569
Method: (§1) In vitro structure/activity relationship (“SAR”) tests were performed according to the following procedure: MIC assays were carried out in a 150 μL volume in duplicate in 96-well clear flat-bottom plates. The bacterial suspension from an overnight culture growth in the appropriate medium was added to a solution of test compound in 0.5% DMSO in water. Final bacterial inoculum was approximate 10^3-10^4 CFU/well. The percentage growth of the bacteria in the test wells relative to that observed for a control well containing no compound was determined by measuring absorbance at 595 nm (A595) after 20-24 h at 37° C. […] The bacterial strains used for the assays include S. aureus ATCC 13709, S. pyogenes ATCC 49399, E. faecalis ATCC 29212, E. faecium ATCC 6569, E. coli ATCC 25922, K. pneumoniae ATCC 13383, P. vulgaris ATCC 8427, P. aeruginosa ATCC 25416. The results of the in vitro SAR tests are in Tables 1-3.

[2] = tested on: E. coli ATCC 25922; assay: MIC assay, E. coli; type: cell-based; details: Escherichia coli, ATCC25922; read-out: MIC E. coli ATCC 25922
Method: as §1

[3] = tested on: E. faecalis ATCC 29212; assay: MIC assay, E. faecalis; type: cell-based; details: Enterococcus faecalis, ATCC29212; read-out: MIC E. faecalis ATCC 29212
Method: as §1

[4] = MIT HUH-7 CC50 48h cytotoxicity; type: cell-based; details: human, HUH-7 cells; HUH-7, 48h
[5] = tested on: S. aureus ATCC 13709; assay: MIC assay, S. aureus; type: cell-based; details: Staphylococcus aureus, ATCC13709
Method: as §1

[6] = tested on: S. aureus (ATCC 13709); assay: Mouse Protection Assay (lethal murine model of bacterial infection); type: in vivo, ICR-CD-1 female mice; details: 14b HCl salt
Method: The in vivo tests were preformed according to the following procedure:
Mouse Protection Assay: 10 mice/dose group (ICR-CD-1 female mice 18-20 grams, Charles River) were infected with a lethal dose (10^6 CFU/mouse) of S. aureus (ATCC 13709) suspended in 7.5% hog Gastric Mucin IP. The infected animals were treated at 1 h and 3 h post infection with either compound 12e (lactate salt) from 37 mg/kg down to 2.3 mg/kg or compound 14b (HCl salt) from 75 mg/kg down to 2.3 mg/kg (0.1 mL/mouse). The positive control drug was Vancomycin (Eli Lilly) 1 mg/kg.

[7] = tested on: P. vulgaris ATCC 8427; assay: MIC assay, P. vulgaris; type: cell-based; details: Proteus vulgaris, ATCC8427; read-out: MIC P. vulgaris ATCC 8427
Method: as §1

[8] = tested on: P. aeruginosa ATCC 25416; assay: MIC assay, P. aeruginosa; type: cell-based; details: Pseudomonas aeruginosa, ATCC25416; read-out: MIC P. aeruginosa ATCC 25416
Method: as §1

[9] = tested on: S. pyogenes ATCC 49399; assay: MIC assay, S. pyogenes; type: cell-based; details: Streptococcus pyogenes, ATCC49399; read-out: MIC S. pyogenes ATCC 49399
Method: as §1

[10] = log P; type: physicochemical
[11] = tested on: K. pneumoniae ATCC 13383; assay: MIC assay, K. pneumoniae; type: cell-based; details: Klebsiella pneumoniae, ATCC13383; read-out: MIC K. pneumoniae ATCC 13383
Method: as §1

[12] = Acute Toxicity Study (maximum tolerated dose); type: in vivo; details: observed seven days; for toxic dose via the IP route: intraperitoneal, 150 down to 19 mg/kg tested; for survival in the subQ group: subcutaneous, 150 down to 19 mg/kg, compound appeared to precipitate at injection site
Method: Acute Toxicity Study: The maximum tolerated dose for either compound 12e or 14b was determined by administering the compound from 150 mg/kg down to 19 mg/kg given either intraperitoneally (IP) or subcutaneously (subQ). […] On autopsy some of the compound appeared to precipitate at the injection site thereby reducing the effective dose. Via the IP route compound 12e was toxic down to 37 mg/kg and compound 14b was only toxic at 150 mg/kg.

[13] = Table 2, benzylamino group modified analogs, read-out: MIC S. aureus
[14] = Table 4, read-out: MIC S. aureus ATCC 13709
[15] = 2.3 × 2 mg/Kg, 1 h and 3 h post infection, one week, 12e lactate salt
[16] = 4.7 × 2 mg/Kg, 1 h and 3 h post infection, one week, 12e lactate salt
[17] = 9.4 × 2 mg/Kg, 1 h and 3 h post infection, one week, 12e lactate salt
[18] = 18.8 × 2 mg/Kg, 1 h and 3 h post infection, one week, 12e lactate salt
[19] = 37.5 × 2 mg/Kg, 1 h and 3 h post infection, one week, 12e lactate salt

Row | Compound | MIC [1] [µM] | MIC [2] [µM] | MIC [3] [µM] | CC50 at 48 h [4] [µM] | MIC [5, 13] [µM] | MIC [5, 14] [µM] | Mice Alive/Total [6, 15] | Mice Alive/Total [6, 16] | Mice Alive/Total [6, 17] | Mice Alive/Total [6, 18] | Mice Alive/Total [6, 19] | MIC [7] [µM] | MIC [8] [µM] | MIC [9] [µM] | logP [10] | MIC [11] [µM] | toxic dose via the IP route [12] [mg/kg] | survival in the subQ group [12] | Mice Alive/Total ([6]; 75 × 2 mg/Kg, treated 1 h and 3 h post infection, observed one week)
1 | O=C(NCCCNCc1ccc(-c2ccccc2)cc1)Nc1ccc(C(F)(F)F)cc1 [12e, 1-{3-[(Biphenyl-4-ylmethyl)-amino]-propyl}-3-(4-trifluoromethyl-phenyl)-urea] | > 100 | 6 to 12 (≈ 2.56 to 5.13 µg/mL) | > 100 | 25 to 50 | 3 to 6 (≈ 1.28 to 2.56 µg/mL) | 3 to 6 (≈ 1.28 to 2.56 µg/mL) | 0/10 | 2/10 | 4/10 | 3/10 | 3/10 | 12 to 25 (≈ 5.13 to 10.7 µg/mL) | > 100 | 3 to 6 (≈ 1.28 to 2.56 µg/mL) | 4.91 | 6 to 12 (≈ 2.56 to 5.13 µg/mL) | ≥ 37 | all animals survived at all doses tested | 
2 | O=C(NCCCNCc1ccc(Oc2ccccc2)cc1)Nc1ccc(C(F)(F)F)cc1 [12h, 1-[3-(4-Phenoxy-benzylamino)-propyl]-3-(4-trifluoromethyl-phenyl)-urea] | > 100 | 6 to 12 (≈ 2.66 to 5.32 µg/mL) | 3 to 6 (≈ 1.33 to 2.66 µg/mL) | 12.5 to 25 | 3 to 6 (≈ 1.33 to 2.66 µg/mL) | 3 to 6 (≈ 1.33 to 2.66 µg/mL) |  |  |  |  |  | 12 to 25 (≈ 5.32 to 11.1 µg/mL) | > 100 | 3 to 6 (≈ 1.33 to 2.66 µg/mL) | 4.77 | 6 to 12 (≈ 2.66 to 5.32 µg/mL) |  |  | 
3 | CCOc1c(Br)cc(Br)cc1CNCCCNC(=O)Nc1ccc(C(F)(F)F)cc1 [12s, 1-[3-(3,5-Dibromo-2-ethoxy-benzylamino)-propyl]-3-(4-trifluoromethyl-phenyl)-urea] | 6 to 12 (≈ 3.32 to 6.64 µg/mL) | 12 to 25 (≈ 6.64 to 13.8 µg/mL) | 6 to 12 (≈ 3.32 to 6.64 µg/mL) | 50 to 100 | 3 to 6 (≈ 1.66 to 3.32 µg/mL) | 3 to 6 (≈ 1.66 to 3.32 µg/mL) |  |  |  |  |  | 12 to 25 (≈ 6.64 to 13.8 µg/mL) | > 100 | 3 to 6 (≈ 1.66 to 3.32 µg/mL) | 5.1 | 3 to 6 (≈ 1.66 to 3.32 µg/mL) |  |  | 
4 | CN(CCCNC(=O)Nc1ccc(C(F)(F)F)cc1)CCCOc1ccc(Br)cc1Br [14b, 1-(3-{[3-(2,4-Dibromo-phenoxy)-propyl]-methyl-amino}-propyl)-3-(4-trifluoromethyl-phenyl)-urea] | > 100 | 12 to 25 (≈ 6.81 to 14.2 µg/mL) | 3 to 6 (≈ 1.7 to 3.4 µg/mL) | > 100 | 3 to 6 (≈ 1.7 to 3.4 µg/mL) | 3 to 6 (≈ 1.7 to 3.4 µg/mL) | 3/10 | 4/10 | 6/10 | 6/10 | 7/10 | 12 to 25 (≈ 6.81 to 14.2 µg/mL) | > 100 | 3 to 6 (≈ 1.7 to 3.4 µg/mL) | 5.3 | 3 to 6 (≈ 1.7 to 3.4 µg/mL) | 150 | all animals survived at all doses tested | 4/10
